Species: Rattus norvegicus
Assay: Open TG-GATES - Regimen: Single
Type: toxicity, organism-based, Sprague-Dawley
Parameters: regimen Single, gender Male, age 6 weeks
Settings: in vivo, po, 1000 mg/kg, route gavage, dose level High; for APTT / Bas / Eos / Fbg / Hb / Ht / Lym / MCH / MCHC / MCV / Mono / Neu / PT / Plat / RBC / Ret / WBC: tissue Blood; for KIDNEY_L / KIDNEY_R / KIDNEY_TOTAL: tissue Kidney; for LIVER: tissue Liver; for A/G / ALP / ALT / AST / BUN / CRE / Ca / Cl / DBIL / GLC / IP / K / LDH / Na / PL / RALB / TBIL / TC / TG / TP / gamma-GTP: tissue Plasma

`CCOC(=O)CCC(=O)O[C@H]1[C@H](O[C@@H]2[C@@H](C)[C@H](O[C@H]3C[C@@](C)(OC)[C@@H](O)[C@H](C)O3)[C@@H](C)C(=O)O[C@H](CC)[C@@](C)(O)[C@H](O)[C@@H](C)C(=O)[C@H](C)C[C@@]2(C)O)O[C@H](C)C[C@@H]1N(C)C` [ERYTHROMYCIN ETHYLSUCCINATE] showed a TERMINAL_BW (3 h) of 217 g, an APTT (3 h) of 22.2 s and a Bas (3 h) of 0%. It also gave an Eos (3 h) of 1%, a Fbg (3 h) of 305.8 mg/dL and a Hb (3 h) of 13 g/dL. The Ht (3 h) was 39.2%, the Lym (3 h) was 74.6% and the MCH (3 h) was 20.5 pg. For the same compound, the MCHC (3 h) was 33.1%, the MCV (3 h) was 61.8 fL and the Mono (3 h) was 2.8%. The Neu (3 h) was 20%, the PT (3 h) was 15.4 s and the Plat (3 h) was 131 x10_4/uL. It also gave an RBC (3 h) of 635.4 x10_4/ul, a Ret (3 h) of 8.2% and a WBC (3 h) of 77.4 x10_2/uL. It also gave a KIDNEY_L (3 h) of 1 g, a KIDNEY_R (3 h) of 1 g and a KIDNEY_TOTAL (3 h) of 1.9 g. It also gave an LIVER (3 h) of 9.6 g, an A/G (3 h) of 1.2 and an ALP (3 h) of 1535.2 IU/L. The ALT (3 h) was 46 IU/L, the AST (3 h) was 76.6 IU/L and the BUN (3 h) was 11.8 mg/dL. The CRE (3 h) was 0.1 mg/dL, the Ca (3 h) was 10.4 mg/dL and the Cl (3 h) was 102.4 meq/L. It also gave a DBIL (3 h) of 0.014 mg/dL, a GLC (3 h) of 181.2 mg/dL and an IP (3 h) of 9.7 mg/dL. It also gave a K (3 h) of 3.7 meq/L, an LDH (3 h) of 158.4 IU/L and a Na (3 h) of 138 meq/L. The PL (3 h) was 143.8 mg/dL, the RALB (3 h) was 2.9 g/dL and the TBIL (3 h) was 0.05 mg/dL. For the same compound, the TC (3 h) was 74.2 mg/dL, the TG (3 h) was 40 mg/dL and the TP (3 h) was 5.4 g/dL. It also gave a gamma-GTP (3 h) of 1 IU/L, a TERMINAL_BW (6 h) of 219.9 g and an APTT (6 h) of 23.4 s. The Bas (6 h) was 0%, the Eos (6 h) was 1% and the Fbg (6 h) was 315 mg/dL. For the same compound, the Hb (6 h) was 13.3 g/dL, the Ht (6 h) was 40.7% and the Lym (6 h) was 73.2%. The MCH (6 h) was 20.6 pg, the MCHC (6 h) was 32.8% and the MCV (6 h) was 62.9 fL. It also gave a Mono (6 h) of 3.2%, a Neu (6 h) of 21% and a PT (6 h) of 15.7 s. It also gave a Plat (6 h) of 134.9 x10_4/uL, an RBC (6 h) of 647.6 x10_4/ul and a Ret (6 h) of 7.9%. The WBC (6 h) was 93.4 x10_2/uL, the KIDNEY_L (6 h) was 1 g and the KIDNEY_R (6 h) was 1.1 g. It also gave a KIDNEY_TOTAL (6 h) of 2.1 g, an LIVER (6 h) of 9.1 g and an A/G (6 h) of 1.2. It also gave an ALP (6 h) of 1632.2 IU/L, an ALT (6 h) of 45.8 IU/L and an AST (6 h) of 79.8 IU/L. It also gave a BUN (6 h) of 10.2 mg/dL, a CRE (6 h) of 0.1 mg/dL and a Ca (6 h) of 10.6 mg/dL. The Cl (6 h) was 104 meq/L, the DBIL (6 h) was 0.012 mg/dL and the GLC (6 h) was 176.8 mg/dL. The IP (6 h) was 10 mg/dL, the K (6 h) was 4 meq/L and the LDH (6 h) was 180 IU/L. It also gave a Na (6 h) of 138.8 meq/L, a PL (6 h) of 140.4 mg/dL and an RALB (6 h) of 2.9 g/dL. The TBIL (6 h) was 0.046 mg/dL, the TC (6 h) was 68.4 mg/dL and the TG (6 h) was 43.4 mg/dL. The TP (6 h) was 5.4 g/dL, the gamma-GTP (6 h) was 1.4 IU/L and the TERMINAL_BW (9 h) was 213.4 g. The APTT (9 h) was 23.1 s, the Bas (9 h) was 0% and the Eos (9 h) was 1%. The Fbg (9 h) was 304.8 mg/dL, the Hb (9 h) was 13.5 g/dL and the Ht (9 h) was 40.8%. It also gave a Lym (9 h) of 76.2%, an MCH (9 h) of 20.8 pg and an MCHC (9 h) of 33.1%. The MCV (9 h) was 62.8 fL, the Mono (9 h) was 2.6% and the Neu (9 h) was 19.8%. For the same compound, the PT (9 h) was 15.4 s, the Plat (9 h) was 121.3 x10_4/uL and the RBC (9 h) was 650.4 x10_4/ul. The Ret (9 h) was 7.2%, the WBC (9 h) was 67.2 x10_2/uL and the KIDNEY_L (9 h) was 1 g. It also gave a KIDNEY_R (9 h) of 1 g, a KIDNEY_TOTAL (9 h) of 2 g and an LIVER (9 h) of 8.5 g. It also gave an A/G (9 h) of 1.2, an ALP (9 h) of 1688.2 IU/L and an ALT (9 h) of 40.4 IU/L. The AST (9 h) was 73 IU/L, the BUN (9 h) was 9 mg/dL and the CRE (9 h) was 0.1 mg/dL. The Ca (9 h) was 10.5 mg/dL, the Cl (9 h) was 105.8 meq/L and the DBIL (9 h) was 0 mg/dL. The GLC (9 h) was 173.8 mg/dL, the IP (9 h) was 9.7 mg/dL and the K (9 h) was 4.2 meq/L. It also gave an LDH (9 h) of 169.2 IU/L, a Na (9 h) of 139.2 meq/L and a PL (9 h) of 144.4 mg/dL. For the same compound, the RALB (9 h) was 3 g/dL, the TBIL (9 h) was 0.036 mg/dL and the TC (9 h) was 69.2 mg/dL. For the same compound, the TG (9 h) was 54.4 mg/dL, the TP (9 h) was 5.5 g/dL and the gamma-GTP (9 h) was 1 IU/L. It also gave a TERMINAL_BW (24 h) of 227.7 g, an APTT (24 h) of 20.2 s and a Bas (24 h) of 0%. For the same compound, the Eos (24 h) was 1%, the Fbg (24 h) was 337.4 mg/dL and the Hb (24 h) was 13.9 g/dL. The Ht (24 h) was 41.8%, the Lym (24 h) was 85.4% and the MCH (24 h) was 20.9 pg. The MCHC (24 h) was 33.2%, the MCV (24 h) was 62.8 fL and the Mono (24 h) was 3%. It also gave a Neu (24 h) of 8.8%, a PT (24 h) of 16.3 s and a Plat (24 h) of 125.6 x10_4/uL. For the same compound, the RBC (24 h) was 666 x10_4/ul, the Ret (24 h) was 7.1% and the WBC (24 h) was 93.9 x10_2/uL. It also gave a KIDNEY_L (24 h) of 1 g, a KIDNEY_R (24 h) of 1 g and a KIDNEY_TOTAL (24 h) of 2 g. For the same compound, the LIVER (24 h) was 9.4 g, the A/G (24 h) was 1.2 and the ALP (24 h) was 1448.8 IU/L. The ALT (24 h) was 34 IU/L, the AST (24 h) was 66.4 IU/L and the BUN (24 h) was 16.8 mg/dL. For the same compound, the CRE (24 h) was 0.1 mg/dL, the Ca (24 h) was 10.6 mg/dL and the Cl (24 h) was 107.6 meq/L. For the same compound, the DBIL (24 h) was 0 mg/dL, the GLC (24 h) was 197.8 mg/dL and the IP (24 h) was 9 mg/dL. For the same compound, the K (24 h) was 4.3 meq/L, the LDH (24 h) was 209.6 IU/L and the Na (24 h) was 142.8 meq/L. It also gave a PL (24 h) of 139.6 mg/dL, an RALB (24 h) of 3 g/dL and a TBIL (24 h) of 0.024 mg/dL. The TC (24 h) was 86.6 mg/dL, the TG (24 h) was 53.2 mg/dL and the TP (24 h) was 5.6 g/dL. It also gave a gamma-GTP (24 h) of 1.2 IU/L.

— ChEMBL document CHEMBL3885861, “Open TG-GATES”
